Results taken from ChEMBL document CHEMBL4406796, “Anti-cancer effects of cinnamon: Insights into its apoptosis effects” (Eur J Med Chem, 2019).

Legend:
[1] = test system: HeLa; experiment: Growth inhibition of human HeLa cells at 10 uM to 1 mM after 24 hrs by MTT assay relative to control; format: functional
[2] = test system: HeLa; experiment: Antiproliferative activity against human HeLa cells at 150 uM after 24 hrs by MTT assay relative to control; format: functional
[3] = test system: HeLa; experiment: Antiproliferative activity against human HeLa cells after 24 hrs by MTT assay relative to control; format: functional
[4] = test system: PC-3; experiment: Cytotoxicity against human PC3 cells after 72 hrs by CellTiter one aqueous solution assay; format: functional, cell-based; details: PC-3, 72 h
[5] = test system: PC-3; experiment: Cytotoxicity against human PC3 cells at 41 ug/ml after 72 hrs in presence of 0.5 uM 2ME2 by CellTiter one aqueous solution assay relative to control; format: functional
[6] = species: Mus musculus; experiment: Down-regulation of c-Myc mRNA expression in mouse relative to control; format: functional
[7] = species: Mus musculus; experiment: Down-regulation of H-ras mRNA expression in mouse relative to control; format: functional
[8] = test system: PC-3; experiment: Cytotoxicity against human PC3 cells at 0.5 uM after 72 hrs in presence of 41 ug/ml eugenol by CellTiter one aqueous solution assay relative to control; format: functional
[9] = test system: HeLa; experiment: Antiproliferative activity against human HeLa cells at 15 mM after 24 hrs by MTT assay relative to control; format: functional

Row | SMILES | growth inhibition (GI) [1] [%] | Activity [2] [%] | Activity [3] [%] | IC50 [4] | Activity [5] [%] | Activity [6] [%] | Activity [7] [%] | Activity [8] [%] | Activity [9] [%]
1 | C=CCc1ccc(O)c(OC)c1 [EUGENOL] | 50 | 47 | 84 | 1000 nM | 50 | 40 | 28 |  | 
2 | COc1cc2c(cc1O)CC[C@@H]1[C@@H]2CC[C@]2(C)[C@@H](O)CC[C@@H]12 [2-METHOXYESTRADIOL] |  |  |  | 82 µg/mL |  |  |  | 50 | 
3 | Nc1ccn([C@@H]2O[C@H](CO)[C@@H](O)C2(F)F)c(=O)n1 [GEMCITABINE] |  |  | 73 |  |  |  |  |  | 47
